Laboratory results taken from article PMC8365601, “Terphenyl-Based Small-Molecule Inhibitors of Programmed Cell Death-1/Programmed Death-Ligand 1 Protein–Protein Interaction” (Journal of Medicinal Chemistry, 2021).
Where two headings read alike, the source gives them in different places.

Legend:
[1] = target: T1, PD-1/PD-L1 interaction (Homo sapiens, UniProt Q9NZQ7); assay: PD-1/PD-L1 ICB assay (Jurkat-ECs with CHO/TCRAct/PD-L1 cells, luciferase); type: cell-based
T1 construct: host or cells: CHO-K1 (CHO/TCRAct/PD-L1) and Jurkat effector cells
Experimental: After a successful optimization of the terphenyl compounds, the activity of the optimized molecules 7a and 8a–j in a cellular context was assessed. To this end, we first performed the PD-1/PD-L1 ICB assay. In this assay, T-cell receptor (TCR)-mediated activation of Jurkat effector cells (Jurkat-ECs) is reduced by the presence of PD-L1, exposed at the surface of CHO/TCRAct/PD-L1 cells (Figure 3A).
The functional assay of the blockade of PD-1/PD-L1 interaction in vitro (PD-1/PD-L1 Blockade Bioassay, Promega) was performed according to the manufacturer’s protocol. CHO/TCRAct/PD-L1 cells or CHO/TCRAct or CHO-K1 cells were seeded on 96-well white plates at the density of 10,000 cells/well and the next day overlaid with Jurkat T cells (20,000 cells/well) in the presence of increasing concentrations of the compounds with DMSO only as a control (the concentration of DMSO was kept constant at 0.1%) or atezolizumab, as a positive control, anti-PD-L1 monoclonal antibody (Selleckchem). The 2.5-fold dilutions of atezolizumab were prepared in the assay buffer (RPMI 1640 + 1% FBS) on the day of the assay. Activation of the Jurkat T cells, reflected by luciferase activity, was monitored by luminescence measurements after 6 h of incubation (37 °C, 5% CO2), and 20 min of additional incubation with the Bio-Glo assay reagent (Promega) at room temperature. The luminescence was read on a Spark microplate reader (Tecan). The data are presented as fold induction of the luminescence signal relative to either untreated (for atezolizumab) or DMSO-treated (for compound) cells. Data points represent mean ± SD values from three to five independent experiments. Half-maximal effective concentrations (EC50 values) were calculated from the Hill curve fitting to the experimental data using Origin Pro 2020 software (OriginLab).

[2] = tested on: primary CD4+ and CD8+ T cells (PBMCs); assay: T-cell activation (TCA) assay, PBMCs with CHO/TCRAct/PD-L1 cells, flow cytometry; type: cell-based, human; settings: 48 h; compounds 0.1, 0.5, 2.5 μM; mAbs 5 μg/mL
Experimental: A standard ICB assay relies on artificial Jurkat-ECs, which are surrogates of T-cells. To verify the potential of the compounds to reactivate the PD-L1-blocked primary T cells, a modified assay termed T-cell activation (TCA) was carried out.[32] In this assay, human primary peripheral blood mononuclear cells (PBMCs) are allowed to make contact with CHO/TCRAct/PD-L1 cells alone or in the presence of PD-1/PD-L1 blockers, and the activation of CD4^+ and CD8^+ T cell is monitored by flow cytometry.
Anticoagulant citrate dextrose-A-treated blood from healthy donors was purchased from the Regional Center of Blood Donation and Blood Therapy in Krakow, Poland. PBMCs were isolated from whole blood by density gradient centrifugation using Pancoll human separating solution (PAN-Biotech GmbH, Aidenbach, Germany). The separated cells were washed and resuspended in RPMI 1640 medium (Biowest) containing 10% FBS (Biowest). PBMCs were added at an amount of 3 × 10^5 to CHO, CHO/TCRAct, or CHO/TCRAct/PD-L1 cells preseeded on 24-well plates in the presence of either anti-PD-L1 mAbs (at the final concentration 5 μg/mL): durvalumab (Selleckchem), atezolizumab (Selleckchem), or avelumab (MedChemExpress) or tested compounds at the concentrations 0.1, 0.5, and 2.5 μM. Untreated cells were used as controls for antibody treatment, while DMSO-treated cells [0.1% (v/v)] were used as controls for compound treatment. The cells were incubated for 48 h (37 °C, 5% CO2) and then detached from the plates with TrypLe Select Enzyme (Thermo Fisher). PBMCs were stained for 20 min at room temperature with the antibodies: anti-CD4-FITC, anti-CD8-BV510, anti-CD69-APC, anti-CD25-PE, anti-HLA-DR-PerCP, and anti-PD1-PECy7 (Becton Dickinson Biosciences, BD). Following two washing steps, the cells were analyzed with a FACSCanto II cytometer. Data analysis was carried out with FlowJo software, followed by statistical significance calculations done with Origin Pro 2020 software (OriginLab). Statistical significance was analyzed with one-way analysis of variance (ANOVA), followed by the Fisher’s posthoc test: *p < 0.05, **p < 0.01, […].

T1 sequence (Q9NZQ7 19-290): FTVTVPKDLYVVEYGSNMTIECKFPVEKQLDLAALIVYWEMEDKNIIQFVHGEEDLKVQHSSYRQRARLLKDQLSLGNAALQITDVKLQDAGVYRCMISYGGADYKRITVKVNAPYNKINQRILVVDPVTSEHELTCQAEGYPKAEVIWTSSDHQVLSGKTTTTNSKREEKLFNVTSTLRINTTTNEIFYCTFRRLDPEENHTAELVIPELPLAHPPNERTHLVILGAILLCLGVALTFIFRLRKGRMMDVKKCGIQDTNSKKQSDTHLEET

- EC50 ([1]; Jurkat-ECs with CHO/TCRAct/PD-L1, 6 h, SI csv, read-out: Bioactivity (EC50 in the ICB assay)): 1030 ± 150 nM
- EC50 ([1]; read-out: EC50 in cell-based assays): ~1000 nM
SMILES: COc1cc(-c2cccc(-c3ccc4c(c3)OCCO4)c2Cl)ccc1CNC(CO)(CO)CO [8j, 2-(((3′-(Benzo-1,4-dioxan-6-yl)-2′-chloro-3-methoxy-[1,1′-biphenyl]-4-yl)methyl)amino)-2-(hydroxymethyl)propane-1,3-diol]
- selectivity of PD-1/PD-L1-blocking activity versus cytotoxicity ([1]; EC50 (tox.) vs EC50 (bio.), Figure 3F): highest selectivity
- numbers of PD-1-positive T cells [2]: significant increase
- numbers of activated, CD25-positive and HLA-DR-positive T-cells [2]: increased
